Assay results as given in patent US20190154879A1, “Silicone Hydrogel Contact Lenses Having Improved Lubricity” (CooperVision International Holding Company, LP, priority 2016, published 2019).

What was measured:
[1] = Hydrophilic-lipophilic balance (HLB) value; format: physicochemical; conditions: calculated as twenty times molecular weight of hydrophilic portion divided by total molecular weight
rabbits = assay: Cytotoxicity by ocular irritation study (ISO 10993-10); format: in vivo; conditions: 0.035% in PBS, ocular irritation study in rabbits (ISO 10993-10)
Excerpt: An advantage of the surfactants used herein is that they are non-cytotoxic at concentrations effective at reducing surface concentration of silicon, and thus may be left in the final packaged contact lens. In contrast, other methods for reducing surface concentration of silicone of silicone hydrogel contact lenses employ toxic compounds that must be extracted from the contact lens prior to final packaging (see e.g. US Pat. Appin. Publ. No. 2014/0275434). Thus, the prior art method requires additional processing steps in order to provide an ophthalmically-acceptable contact lens, which add to manufacturing costs. Further, there is a desire to minimize the use of hazardous chemicals in manufacturing sites, which is another advantage of the present invention compared to the prior art. In specific examples, the concentration of the surfactant in the packaging solution prior to contact with the contact lens is from about 0.01 wt. % or 0.02 wt. %, up to about 0.05 wt. %, 0.075 wt. %, or 0.1 wt. %. Throughout this disclosure, when a series of lower limit ranges and a series of upper limit ranges are provided, all combinations of the provided ranges are contemplated as if each combination were specifically listed. […]
Because of the low CoF values obtained for both lenses, tyloxapol and RLM-100 were evaluated further for use as a possible packaging solution additive.

In the case of tyloxapol, the HLB value [1] is reported as “about 13” and the cytotoxicity (rabbits) is reported as “non-cytotoxic”.
